Data as given in patent US8008525B2, “Receptor function regulating agent” (Takeda Pharmaceutical Company Limited, priority 2003, dated 2011).

Experiments:
[1] = tested on: AtT-20 cells; assay: Reference Example A10: inhibitory activity of fatty acids against CRF-induced ACTH secretion from AtT-20 cells; details: 10 nM CRF; 90 minutes; fatty acids conjugated with BSA; adhesive AtT-20 substrain (FIG. 13)
[2] = molecular target: T1, human 14273 receptor (Homo sapiens, UniProt Q5NUL3); assay: Reference Example A2: reactivity of fatty acids, intracellular calcium by FLIPR in CHO-K1 cells expressing human 14273 receptor; format: cell-based; details: 30 μM fatty acid; CHO-K1 cells transiently expressing human 14273; FLIPR (FIG. 1-5)
T1 construct: expressed in transfected cells
T1 sequence (Q5NUL3 1-361): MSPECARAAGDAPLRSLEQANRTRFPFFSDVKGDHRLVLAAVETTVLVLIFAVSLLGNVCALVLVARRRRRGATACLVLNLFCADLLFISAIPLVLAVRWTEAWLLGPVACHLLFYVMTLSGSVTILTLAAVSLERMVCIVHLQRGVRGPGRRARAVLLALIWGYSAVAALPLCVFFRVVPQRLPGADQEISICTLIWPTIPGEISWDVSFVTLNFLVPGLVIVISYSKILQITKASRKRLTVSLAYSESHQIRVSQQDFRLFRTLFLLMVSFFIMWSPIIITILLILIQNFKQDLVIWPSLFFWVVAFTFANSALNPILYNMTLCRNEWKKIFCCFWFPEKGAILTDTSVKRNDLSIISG
Description: (§1) CHO-K1 cell line was cultured using Ham's F-12 medium (Invitrogen) containing 10% fetal bovine serum (Invitrogen), unless otherwise described. On the day before transfection was conducted, 4.5×10^5 cells were dispersed per 10 cm^2, and cultured at 37° C. for 15 hours by a CO2 incubator adjusted to a CO2 concentration of 5%. Transfection was carried out using a Lipofectamine reagent (Invitrogen) in accordance with the instruction accompanying the reagent. In the case of using a 6-well plate as culture dish, the following steps were performed. First of all, two tubes having a volume of 1.5 ml each were provided, and 100 μl of an Opti-MEM-I medium (Invitrogen) was dispensed to each of the tubes. Next, after adding 1 μg of an expression vector to one tube and adding 6 μl of the Lipofectamine reagent to the other tube, both of them were mixed, and left at rest at room temperature for 20 minutes. A mixture for transfection, in which 800 μl of the Opti-MEM-I medium was added to this solution, was added to the CHO-K1 cells previously washed using the Opti-MEM-I medium, and then the cells were cultured in the CO2 incubator for 6 hours. The cells after culturing were rinsed using PBS (Invitrogen), then detached using a 0.05% trypsin/EDTA solution (Invitrogen), and recovered through centrifugation. The number of the obtained cells was measured, and the cells were diluted to a concentration of 5×10^4 cells per 100 μl of the medium. This dilution was separately injected to a Black-walled 96-well plate (Costar) in an amount of 100 μl per well, and then the cells were incubated overnight in a CO2 incubator. To the CHO-K1 cells which transiently expressed the receptor during the transfection operation, various test samples were added, and the change in the intracellular calcium concentration during this operation was measured using FLIPR (Molecular Device). In order to measure the change in the intracellular calcium concentration with FLIPR, the following pretreatment was performed. First, Assay Buffer for washing cells was prepared in order to add a fluorescent dye Fluo3-AM (DOJIN) to the cells, or to wash cells immediately before performing the FLIPR assay. To a solution prepared by adding 20 ml of 1 M HEPES (pH 7.4) (DOJIN) to 1000 ml of HBSS (Invitrogen) (hereinafter, HBSS/HEPES solution), 10 ml of a solution prepared by dissolving 710 mg of probenecid (Sigma) in 5 ml of a 1 N NaOH solution, and then further added 5 ml of the HBSS/HEPES solution thereto was added, and this solution was used as the Assay Buffer. […] After performing the pretreatment as described above, the changes in the intracellular calcium concentration after addition of various test samples were measured using FLIPR.

[3] = molecular target: T2, mouse 14273 receptor (Mus musculus, UniProt Q7TMA4); assay: Reference Example A2: reactivity of fatty acids, intracellular calcium by FLIPR in CHO-K1 cells expressing mouse 14273 receptor; format: cell-based; details: 30 μM fatty acid; CHO-K1 cells transiently expressing mouse 14273; FLIPR (FIG. 1-5)
T2 construct: expressed in transfected cells; host or cells: CHO-K1 cells, transient transfection with Lipofectamine
T2 sequence (Q7TMA4 1-361): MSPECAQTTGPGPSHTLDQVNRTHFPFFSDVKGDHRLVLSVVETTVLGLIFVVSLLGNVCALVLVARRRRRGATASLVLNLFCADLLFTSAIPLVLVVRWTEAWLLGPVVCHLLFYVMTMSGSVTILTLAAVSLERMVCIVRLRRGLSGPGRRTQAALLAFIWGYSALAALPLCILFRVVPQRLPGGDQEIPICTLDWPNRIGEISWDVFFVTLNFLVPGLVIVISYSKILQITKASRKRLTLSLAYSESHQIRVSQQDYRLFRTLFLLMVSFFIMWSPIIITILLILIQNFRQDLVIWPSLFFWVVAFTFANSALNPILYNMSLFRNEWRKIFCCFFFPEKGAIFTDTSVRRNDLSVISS
Description: as §1

[4] = molecular target: T1, human 14273 receptor; assay: Test Example 1: regulating effect for 14273 receptor function (agonist effect), change in intracellular calcium level by FLIPR; format: cell-based; details: CHO cell line (No. 104) expressing human 14273 receptor, change of fluorescent intensity after 35 seconds
Description: CHO cell lines (No. 104) in which a human 14273 receptor has expressed was diluted to contain 3×10^4/100 μl cells, and dispensed in Black walled 96-well plate (Costar) at a density of 100 μl/well, followed by culturing overnight in a CO2 incubator. A change in intracellular calcium level was measured using FLIPR (Molecular Device). The method is described as below. 50 μg of Fluo-3AM (DOJIN) was dissolved in 21 μl of DMSO (DOJIN) and an equal volume of 20% pluronic acid (Molecular Probes) was added thereto, followed by mixing them. The mixture was added to 10.6 ml of the assay buffer [which is prepared by adding 10 ml of a solution, which is prepared by adding 20 ml of 1 M HEPES (pH 7.4, DOJIN) to 1 L of HBSS (Invitrogen), dissolving 710 mg of probenecid (Sigma) in 5 ml of 1 N NaOH, and further adding 5 ml of the above-mentioned HBSS/HEPES solution and mixing it.] supplemented with 105 μl of fetal bovine serum to prepare a fluorescent dye solution. The medium of the cell plate was removed, the fluorescent dye solution was dispensed in 100 μl each per well. The culturing was performed in a CO2 incubator for 1 hour to incorporate the fluorescent dye into the cells. The cells after culturing were washed with the assay buffer. The compounds to be added to the cells were diluted to each concentration with a buffer solution to which CHAPS (DOJIN) was added in 0.015%, and dispensed in a plate for the test sample. Following the pretreatment above, a change in intracellular calcium level after addition of the compound was determined with FLIPR to investigate the agonist effect. An EC50 value was calculated from dose-reaction curve using the change of fluorescent intensity after 35 seconds from the reaction initiation.

[5] = tested on: 3T3-L1 adipocytes; assay: Test Example 2: suppression of lipolysis (glycerol production) in differentiated 3T3-L1 adipocytes; format: cell-based, mouse; details: treated 45 minutes, isoproterenol 1×10^−10 M, compound 40 μM and 20 μM (FIG. 14)
Description: Influence on lipolysis was investigated with use of mouse fibroblast-like cell line 3T3-L1 cells that can differentiate to adipocyte. […] The 3T3-L cells were plated on a plate and cultured to become confluent. The cells were then treated for 48 hours in the medium containing 10 μg/ml of insulin, 0.5 mM of 3-isobutyl-1-methylxanthine (IBMX) and 2.5 μM of dexamethasone to induce differentiation into adipocytes. The culturing was continued for further 11 days. After the 3T3-L1 cells were differentiated into adipocytes, a change in the amount of glycerol produced after lipolysis was assayed. After the cells were washed with modified Krebs-Ringer buffer, they were treated with the compounds for 45 minutes, and the supernatant was then recovered. The glycerol content in the supernatant was determined using a Free Glycerol Determination Kit (Sigma).

## CC/C=C\C/C=C\C/C=C\CCCCCCCC(=O)O [α-linolenic acid]
[1]
  suppression of CRF-induced ACTH secretion: significant suppression

## O=C(O)CCc1ccc(OCc2cc(OCC(=O)O)cc(Oc3ccccc3)c2)c(F)c1 [Example 129, 3-(4-{[3-(carboxymethoxy)-5-phenoxybenzyl]oxy}-3-fluorophenyl)propanoic acid]
other
  melting point: 122 to 124 °C

## CCCC(=O)O [butyric acid]
[1]
  suppression of CRF-induced ACTH secretion: did not exhibit significant inhibition

## CCCCC/C=C\C/C=C\C/C=C\C/C=C\CCCC(=O)O [arachidonic acid]
[2]
  response (increase in the intracellular calcium concentration): specifically responsed
[3]
  response (increase in the intracellular calcium concentration): specifically responsed

## Cl.NCCOc1cc(COc2ccc(CCC(=O)O)cc2F)cc(Oc2ccccc2)c1
other
  melting point: 182 to 183 °C

## CCCCCC/C=C\CCCCCCCC(=O)O [palmitoleic acid]
[2]
  response (increase in the intracellular calcium concentration): specifically responsed
[3]
  response (increase in the intracellular calcium concentration): specifically responsed

## CCCCC/C=C\C/C=C\C/C=C\CCCCC(=O)O [γ-linolenic acid]
[1]
  suppression of CRF-induced ACTH secretion: significant suppression
[2]
  response (increase in the intracellular calcium concentration): specifically responsed
[3]
  response (increase in the intracellular calcium concentration): specifically responsed

## O=C(O)CCc1ccc(OCc2cccc(OCC(=O)O)c2)c(F)c1 [Example 107, 3-(4-{[3-(carboxymethoxy)benzyl]oxy}-3-fluorophenyl)propanoic acid]
other
  melting point: 150 to 151 °C

## O=C(O)CCc1ccc(OC2CCc3ccccc32)c(Cl)c1 (stereo not drawn) [Reference Example 16, 3-Chloro-4-[(2,3-dihydro-1H-inden-1-yl)oxy]benzenepropanoic acid]
[4]
  EC50: ≤ 10 µM
[5]
  amount of glycerol production increased by isoproterenol stimulation (lipolysis): inhibitory effect
[5]; listed as Reference example 16
  amount of glycerol production increased by isoproterenol stimulation (lipolysis): lowering the amount of the glycerol production

## CCCCC/C=C\C/C=C\CCCCCCCC(=O)O [linoleic acid]
[2]
  response (increase in the intracellular calcium concentration): specifically responsed
[3]
  response (increase in the intracellular calcium concentration): specifically responsed

## Cc1cccc(Oc2cccc(COc3ccc(CCC(=O)O)cc3F)c2)c1 [Example 169, 3-(3-fluoro-4-{[3-(3-methylphenoxy)benzyl]oxy}phenyl)propanoic acid]
[4]
  EC50: ≤ 10 µM

## CC(C)Oc1cccc(COc2c(F)cc(CCC(=O)O)cc2F)c1 [Example 10]
[4]
  EC50: ≤ 10 µM

## CCOc1cccc(COc2ccc(CCC(=O)O)cc2F)c1C [Example 208, 3-{4-[(3-ethoxy-2-methylbenzyl)oxy]-3-fluorophenyl}propanoic acid]
[4]
  EC50: ≤ 10 µM

## O=C(O)CCc1cc(F)c(OCc2ccccc2Oc2ccccc2)c(F)c1 [Example 16, 3,5-Difluoro-4-[(2-phenoxyphenyl)methoxy]benzenepropanoic acid]
[4]
  EC50: ≤ 10 µM

## CC1(C)Cc2ccccc2C1Oc1ccc(CCC(=O)O)cc1 (stereo not drawn) [Reference Example 25, 4-[(2,3-Dihydro-2,2-dimethyl-1H-inden-1-yl)oxy]benzenepropanoic acid]
[4]
  EC50: ≤ 10 µM

## O=C(O)CCc1cc(F)c(OCc2cccc(Oc3nccs3)c2)c(F)c1 [Example 68, 3-(3,5-difluoro-4-{[3-(1,3-thiazol-2-yloxy)benzyl]oxy}phenyl)propanoic acid]
[4]
  EC50: ≤ 10 µM

## CC(C)Oc1cc(COc2ccc(CCC(=O)O)cc2F)cc(Oc2ccccc2)c1 [Example 124, 3-{3-fluoro-4-[(3-isopropoxy-5-phenoxybenzyl)oxy]phenyl}propanoic acid]
[4]
  EC50: ≤ 10 µM

## O=C(O)CCc1ccc(OCc2ccccc2Oc2ccccc2)cc1 [Reference Example 30, 4-[(2-Phenoxyphenyl)methoxy]benzenepropanoic acid]
[4]
  EC50: ≤ 10 µM

## O=C(O)CCc1cc(F)c(OCc2cccc(Oc3ccc(F)cc3)c2)c(F)c1 [Example 54, 3-(3,5-difluoro-4-{[3-(4-fluorophenoxy)benzyl]oxy}phenyl)propanoic acid]
[4]
  EC50: ≤ 10 µM

## O=C(O)CCc1cc(F)c(OCc2ccccc2-c2ccccc2)c(F)c1 [Example 20, 4-([1,1′-Biphenyl]-2-ylmethoxy)-3,5-difluorobenzenepropanoic acid]
[4]
  EC50: ≤ 10 µM
